Reference: patent US4454140A, “Nasal administration of dextromethorphan” (Hoffmann-La Roche Inc., priority 1982, dated 1984)
Where “and” joins values, the source holds several entries; their conditions need not be identical. Equal entries are not always repeated. Where two headings read alike, the source gives them in different places.

Test: bioavailability of dextromethorphan after nasal, oral and intravenous administration (plasma levels, spectrofluorophotometric)
Assay type: in vivo, female beagle dogs
Conditions: for AUC(0-t) at 2 h / concentration at 1 min / concentration at 0.05 h / concentration at 0.1 h / concentration at 0.2 h / concentration at 20 min / concentration at 35 min / concentration at 55 min / concentration at 80 min / concentration at 2 h / bioavailability at 2 h / concentration at 3 h: dog, plasma, 15 mg; for AUC(0-t) at 2 h / AUC 0-120 min., Individual AUC: 15 mg/dog; for concentration at 1 min / concentration at 0.05 h / concentration at 0.1 h / concentration at 0.2 h / concentration at 20 min / concentration at 35 min / concentration at 55 min / concentration at 80 min / concentration at 2 h / concentration at 3 h / Plasma Concentration: HBr salt 15 mg/dog; for bioavailability at 2 h: relative to intravenous, 0-120 min
Description: The following study was undertaken to determine the bioavailability of dextromethorphan from nasal solution in comparison with the bioavailability of the drug when administered orally and intravenously.
Three female beagle dogs weighing about 10 kg each were used for the study without fasting. For nasal administration, the dogs were anaesthetized with an intravenous injection of 30 mg/kg of sodium pentobarbital, and 0.5 ml of a warm saline solution containing dextromethorphan (30 mg/ml) was then administered to the nasal cavity through the nostrils with a syringe. For oral administration, the dogs were not anaesthetized and 10 ml of a saline solution containing dextromethorphan hydrobromide (1.5 mg/ml) was administered via a stomach tube. For intravenous administration, the dogs were anaesthetized as noted above, and one ml of a saline solution containing dextromethorphan hydrobromide (15 mg/ml) was injected through the cubital vein.
After nasal, oral, and intravenous administration, blood was sampled from the cubital vein periodically. The blood sample, was centrifuged and 2.5 ml of plasma were analyzed. Plasma levels of dextromethorphan were determined spectrofluorophotometrically by a modification of the method of Ramachander, et al., J. Pharm. Sci., 66, 1047 (1977). Specifically, plasma was transferred into a glass tube, 0.5 ml of a saturated solution of sodium carbonate and 10 ml of ethyl acetate were added, and the contents shaken well. After centrifuging, an aliquot (8 ml) of the supernate was transferred into a glass tube containing 1.5 ml of 1.0N HCl, and was extracted into the acid layer after mixing well and centrifuging. The fluorescence of the acid layer was determined by a spectrofluorophotometer, Aminco-Bowman Ratio II, American Instrument Co. The excitation and emission wave lengths were 278 nm and 306 nm, respectively. Recovery of known amounts of dextromethorphan spiked with dog plasma was 50% of the added concentration. For calculating the drug plasma level, the above correction factor was taken into consideration.
Table I reports the plasma concentration of dextromethorphan after nasal, intravenous, and oral administration of 15 mg/dog of dextromethorphan hydrobromide salt.

`COc1ccc2c(c1)[C@]13CCCC[C@@H]1[C@H](C2)N(C)CC3` [dextromethorphan, d-3-methoxy-N-methylmorphinan] showed an AUC(0-t) at 2 h (nasal, average of three dogs, read-out: AUC 0-120 min., Average ± S.E. (converted)) of 472 ng·h/mL, a concentration at 1 min (nasal, dog #1, 1 min) of 72.1 ng/mL and a concentration at 0.05 h (nasal, dog #1, 3 min) of 323 ng/mL. The concentration at 0.1 h (nasal, dog #1, 6 min) was 618 ng/mL, the concentration at 0.2 h (nasal, dog #1, 12 min) was 684 ng/mL and the concentration at 20 min (nasal, dog #1, 20 min) was 503 ng/mL. The concentration at 35 min (nasal, dog #1, 35 min) was 276 ng/mL, the concentration at 55 min (nasal, dog #1, 55 min) was 240 ng/mL and the concentration at 80 min (nasal, dog #1, 80 min) was 201 ng/mL. It also gave a concentration at 2 h (nasal, dog #1, 120 min) of 154 ng/mL, a concentration at 1 min (nasal, dog #2, 1 min) of 89.1 ng/mL and a concentration at 0.05 h (nasal, dog #2, 3 min) of 793 ng/mL. For the same molecule, the concentration at 0.1 h (nasal, dog #2, 6 min) was 733 ng/mL, the concentration at 0.2 h (nasal, dog #2, 12 min) was 888 ng/mL and the concentration at 20 min (nasal, dog #2, 20 min) was 260 ng/mL. For the same molecule, the concentration at 35 min (nasal, dog #2, 35 min) was 201 ng/mL, the concentration at 55 min (nasal, dog #2, 55 min) was 170 ng/mL and the concentration at 80 min (nasal, dog #2, 80 min) was 183 ng/mL. For the same molecule, the concentration at 2 h (nasal, dog #2, 120 min) was 141 ng/mL, the concentration at 1 min (nasal, dog #3, 1 min) was 84.2 ng/mL and the concentration at 0.05 h (nasal, dog #3, 3 min) was 428 ng/mL. For the same molecule, the concentration at 0.1 h (nasal, dog #3, 6 min) was 493 ng/mL, the concentration at 0.2 h (nasal, dog #3, 12 min) was 385 ng/mL and the concentration at 20 min (nasal, dog #3, 20 min) was 263 ng/mL. It also gave a concentration at 35 min (nasal, dog #3, 35 min) of 165 ng/mL, a concentration at 55 min (nasal, dog #3, 55 min) of 129 ng/mL and a concentration at 80 min (nasal, dog #3, 80 min) of 93.3 ng/mL. It also gave a concentration at 2 h (nasal, dog #3, 120 min) of 108 ng/mL, an AUC(0-t) at 2 h (nasal, individual dogs, read-out: AUC 0-120 min., Individual AUC (converted)) of 568 ng·h/mL and a bioavailability at 2 h (nasal) of 110%. For the same molecule, the bioavailability at 2 h (oral) was 30.2%, the concentration at 1 min (iv, dog #1, 1 min) was 1530 ng/mL and the concentration at 0.05 h (iv, dog #1, 3 min) was 927 ng/mL. It also gave a concentration at 0.1 h (iv, dog #1, 6 min) of 708 ng/mL, a concentration at 0.2 h (iv, dog #1, 12 min) of 482 ng/mL and a concentration at 20 min (iv, dog #1, 20 min) of 331 ng/mL. It also gave a concentration at 35 min (iv, dog #1, 35 min) of 296 ng/mL, a concentration at 55 min (iv, dog #1, 55 min) of 171 ng/mL and a concentration at 80 min (iv, dog #1, 80 min) of 134 ng/mL. It also gave a concentration at 2 h (iv, dog #1, 120 min) of 144 ng/mL, a concentration at 1 min (iv, dog #2, 1 min) of 1590 ng/mL and a concentration at 0.05 h (iv, dog #2, 3 min) of 952 ng/mL. For the same molecule, the concentration at 0.1 h (iv, dog #2, 6 min) was 532 ng/mL, the concentration at 0.2 h (iv, dog #2, 12 min) was 349 ng/mL and the concentration at 20 min (iv, dog #2, 20 min) was 229 ng/mL. For the same molecule, the concentration at 35 min (iv, dog #2, 35 min) was 166 ng/mL, the concentration at 55 min (iv, dog #2, 55 min) was 146 ng/mL and the concentration at 80 min (iv, dog #2, 80 min) was 165 ng/mL. The concentration at 2 h (iv, dog #2, 120 min) was 141 ng/mL, the concentration at 1 min (iv, dog #3, 1 min) was 1490 ng/mL and the concentration at 0.05 h (iv, dog #3, 3 min) was 907 ng/mL. It also gave a concentration at 0.1 h (iv, dog #3, 6 min) of 430 ng/mL, a concentration at 0.2 h (iv, dog #3, 12 min) of 322 ng/mL and a concentration at 20 min (iv, dog #3, 20 min) of 187 ng/mL. The concentration at 35 min (iv, dog #3, 35 min) was 102 ng/mL, the concentration at 55 min (iv, dog #3, 55 min) was 81.4 ng/mL and the concentration at 80 min (iv, dog #3, 80 min) was 46.2 ng/mL. For the same molecule, the concentration at 2 h (iv, dog #3, 120 min) was 37.3 ng/mL, the AUC(0-t) at 2 h (iv, intravenous, average of three dogs, read-out: AUC 0-120 min., Average ± S.E. (converted)) was 431 ng·h/mL and the AUC(0-t) at 2 h (iv, intravenous, individual dogs, read-out: AUC 0-120 min., Individual AUC (converted)) was 537 ng·h/mL. For the same molecule, the concentration at 20 min (po, dog #1, 20 min) was 7.5 ng/mL, the concentration at 35 min (po, dog #1, 35 min) was 43.4 ng/mL and the concentration at 55 min (po, dog #1, 55 min) was 73.6 ng/mL. The concentration at 80 min (po, dog #1, 80 min) was 80.1 ng/mL, the concentration at 2 h (po, dog #1, 120 min) was 74.7 ng/mL and the concentration at 3 h (po, dog #1, 180 min) was 63.3 ng/mL. It also gave a concentration at 0.1 h (po, dog #2, 6 min) of 18.5 ng/mL, a concentration at 0.2 h (po, dog #2, 12 min) of 40 ng/mL and a concentration at 20 min (po, dog #2, 20 min) of 62.9 ng/mL. It also gave a concentration at 35 min (po, dog #2, 35 min) of 94.4 ng/mL, a concentration at 55 min (po, dog #2, 55 min) of 92.3 ng/mL and a concentration at 80 min (po, dog #2, 80 min) of 86.8 ng/mL. The concentration at 2 h (po, dog #2, 120 min) was 86 ng/mL, the concentration at 3 h (po, dog #2, 180 min) was 85.7 ng/mL and the concentration at 20 min (po, dog #3, 20 min) was 18.4 ng/mL. The concentration at 35 min (po, dog #3, 35 min) was 47.6 ng/mL, the concentration at 55 min (po, dog #3, 55 min) was 65 ng/mL and the concentration at 80 min (po, dog #3, 80 min) was 95.5 ng/mL. The concentration at 2 h (po, dog #3, 120 min) was 91.5 ng/mL, the concentration at 3 h (po, dog #3, 180 min) was 53.4 ng/mL and the AUC(0-t) at 2 h (po, oral, average of three dogs, read-out: AUC 0-120 min., Average ± S.E. (converted)) was 130 ng·h/mL. The AUC(0-t) at 2 h (po, oral, individual dogs, read-out: AUC 0-120 min., Individual AUC (converted)) was 110 ng·h/mL, the “AUC 0-120 min., Individual AUC” value (intravenous, individual dogs) was 27597.7 ng eq. ml-^1 min and 17668.5 ng eq. ml-^1 min and the “absorption after nasal administration vs standard oral route” value (nasal vs oral) was “more rapid and more complete absorption”. For the same molecule, the “blood level after nasal administration” value (nasal, 15 mg dose, about 5 minutes to about 2 hours, vs injected dose (FIG. 1)) was “blood levels comparable to an injected dose”, the “AUC 0-120 min., Individual AUC” value (nasal, individual dogs) was 30735.4 ng eq. ml-^1 min and 20139.0 ng eq. ml-^1 min and the “Plasma Concentration” value (oral, dog #1, 1 min) was 0 ng eq./ml. The “Plasma Concentration” value (oral, dog #1, 3 min) was 0 ng eq./ml, the “Plasma Concentration” value (oral, dog #1, 6 min) was 0 ng eq./ml and the “Plasma Concentration” value (oral, dog #1, 12 min) was 0 ng eq./ml. The “Plasma Concentration” value (oral, dog #2, 1 min) was 0 ng eq./ml, the “Plasma Concentration” value (oral, dog #2, 3 min) was 0 ng eq./ml and the “Plasma Concentration” value (oral, dog #3, 1 min) was 0 ng eq./ml. For the same molecule, the “Plasma Concentration” value (oral, dog #3, 3 min) was 0 ng eq./ml, the “Plasma Concentration” value (oral, dog #3, 6 min) was 0 ng eq./ml and the “Plasma Concentration” value (oral, dog #3, 12 min) was 0 ng eq./ml. The “AUC 0-120 min., Individual AUC” value (oral, individual dogs) was 9356.5 ng eq. ml-^1 min and 7441.6 ng eq. ml-^1 min and the “blood level after oral administration” value (oral, same dosage level (15 mg), FIG. 1) was “considerably lower blood levels”.
